From patent EP3628663A1, “ANTIVIRAL COMPOUNDS” (priority 2018, dated 2020)
Like-named read-outs stand apart in the source and are kept apart here.

What was measured:
HAd-C5-GFP = experiment: Fluorescent plaque forming assay of adenoviral propagation (virus spread); assay type: cell-based; conditions: HEK293 cells
Procedure: Adenoviral propagation was quantified by fluorescent plaque forming assay with GFP expressing HAd-C5 vector in the presence of the compound as a measure of virus spread through multiple rounds of infection.
HEK293 cells were infected with 0.1 physical particles per cell (pp/cell) of E1-deficient GFP expressing HAd-C5-GFP vector for 24 hours followed by removal of the inoculums and overlay with 1% agarose supplemented with vehicle only (DMSO) or 5 µM of the compound of formula (IIIa).
Six days after infection, plaque sizes were measured by epifluorescence microscopy using Image J.
Cidofovir™, the standard clinical drug used against adenovirus infections in the clinic, is also included in this test.
The compounds were used at a concentration of 5 µM. Cidofovir was in particular used at even higher concentration, i.e. 10 and 20 µM.
DMSO was used as negative control.
Statistical analysis was carried out using unpaired Student t-test.

protein VI = experiment: Ubiquitylation of RFP-tagged protein VI in NEDD4.2-GFP expressing cells (RFP-trap, western blot); assay type: cell-based; conditions: increasing amounts (0, 2, 5, 10, 25 µM) for 2h; NEDD4.2-GFP cells
Procedure: Stably expressing NEDD4.2-GFP cells were transfected with an expression vector encoding RFP-tagged protein VI WT (including the PPxY targeted by NEDD4 ubiquitin ligases through WW-domains, which are the target of the compounds) or protein VI M1 (with the PPxY targeted by NEDD4 ubiquitin ligases through WW-domains mutated to PGAA) and treated with increasing amounts of the compound of formula (IIIa) for 2h. RFP stands for Red Fluorescent Protein.
Protein VI was immunoprecipitated from drug treated cells using RFP-trap and analyzed by western blotting with anti-ubiquitin antibodies.
(§1) Samples were analyzed by western blot using anti-protein VI antibodies described in Martinez et al., J Virol. 2015 Feb;89(4):2121-35.

WW3-NEDD 4.1 peptide = WW3-NEDD 4.1 peptide (Homo sapiens, UniProt P46934); experiment: MicroScale thermophoresis (MST) binding to FAM-labelled WW3 peptide of NEDD4.1
Procedure: (§2) For the MicroScale Thermophoresis (MST) experiments 1 mg of each FAM-labeled WW3_Nedd.4.1 ([…] KIPAH = SEQ ID NO: 1) and WW3_Nedd.4.2 peptide ([…] […] = SEQ ID NO: 2) (FAM = Fluorescein amidite) was used at >80% purity.
(§3) MicroScale thermophoresis binding experiments were carried out with final 100 nM FAM-labelled WW3_Nedd.4.1 and WW3_Nedd.4.2 in binding buffer (1x PBS pH 7.4, 5 % DMSO, 0.1 % Pluronic F-127). The concentration range of the compound of formula (IIIa) is indicated here-after: Table 1
(§4) The MST analyses were performed at 40 % MST power, 100 % LED power in standard capillaries on a Monolith NT.115 blue/green device at 25°C (NanoTemper Technologies, Munich, Germany) in duplicate technical runs in the same capillary. Thermophoresis + Tjump was analysed. The recorded fluorescence was normalised to fraction bound (0 = unbound, 1 = bound), and processed using the GraphPad Prism® 6 software and fitted using the KD fit formula derived from the law of mass action.

WW3-domain of NEDD4 = molecular target: T1, WW3-domain of NEDD4 (Homo sapiens, UniProt P46934); experiment: Solution NMR interaction study with synthetic WW3-domain peptide of NEDD4; assay type: binding; conditions: equimolar amounts of compound and NEDD4 peptide
T1 construct: a peptide corresponding to the 45 amino acids of WW3-domain of NEDD4; made in house; host or cells: chemical synthesis

WW3-NEDD 4.2 peptide = WW3-NEDD 4.2 peptide (Homo sapiens, UniProt Q96PU5); experiment: MicroScale thermophoresis (MST) binding to FAM-labelled WW3 peptide of NEDD4.2; conditions: 100 nM FAM-labelled peptide, 1x PBS pH 7.4, 5 % DMSO, 0.1 % Pluronic F-127, 25°C
Procedure: as §2, §3, §4

U2OS cells = experiment: Ubiquitin proteome by diGly peptide enrichment and LC-MS/MS; assay type: cell-based, Homo sapiens; conditions: 24h, compared to DMSO treated control cells
Procedure: U2OS Cells were treated for 24h with two different concentrations of the compound of formula (IIIa) (2µM and 10µM) and were subjected to Mass Spec. analysis following diGly peptide enrichment to obtain changes in the Ubiquitin proteome.
Briefly, cells were collected following treatment (as above) and protein extracts generated using acetone precipitation. Total proteins were trypsin-digested and the resulting peptides purified through anti di-Gly affinity chromatography prior being sequenced by LC-MS/MS.

GFP-NEDD4.2 = experiment: Localization of GFP-NEDD4.2 in U2OS cells (fluorescence microscopy); assay type: cell-based, Homo sapiens; conditions: U2OS cells stably expressing GFP-NEDD4.2, versus untreated cells
From the text: (§5) U2OS cells (ATCC® HTB-96™) (Homo sapiens bone osteosarcoma) stably expressing low levels of GFP-NEDD4.1 or GFP-NEDD4.2 were generated through single copy flp-FRT integration (Bosse et al., Methods Mol Biol. 2013;1064:153-69.) and treated with the compound of formula (IIIa) or the control DMSO.

GFP-NEDD4.1 = experiment: Localization of GFP-NEDD4.1 in U2OS cells (fluorescence microscopy); assay type: cell-based, Homo sapiens; conditions: U2OS cells stably expressing GFP-NEDD4.1, versus DMSO
From the text: as §5

NEDD4.2-GFP = experiment: Association of incoming fluorescently labelled adenoviruses with NEDD4.2-GFP (fluorescence microscopy); assay type: cell-based, Homo sapiens; conditions: 10µM; 15-30 min p.i.
Procedure: GFP-NEDD4.2 expressing cells were infected in absence or presence of 10µM of the compound of formula (IIIa) with fluorescently labelled viruses and association between viruses and NEDD4.2-GFP was quantified using fluorescence microscopy.

recombinant NEDD4.2 = molecular target: T2, recombinant NEDD4.2 (Homo sapiens, UniProt Q96PU5); experiment: In vitro ubiquitylation of protein VI released from adenovirus particles with recombinant NEDD4.2; assay type: biochemical; conditions: high concentrations (25 µM); recombinant NEDD4.2, 1h at 30°C
T2 sequence (Q96PU5 1-975): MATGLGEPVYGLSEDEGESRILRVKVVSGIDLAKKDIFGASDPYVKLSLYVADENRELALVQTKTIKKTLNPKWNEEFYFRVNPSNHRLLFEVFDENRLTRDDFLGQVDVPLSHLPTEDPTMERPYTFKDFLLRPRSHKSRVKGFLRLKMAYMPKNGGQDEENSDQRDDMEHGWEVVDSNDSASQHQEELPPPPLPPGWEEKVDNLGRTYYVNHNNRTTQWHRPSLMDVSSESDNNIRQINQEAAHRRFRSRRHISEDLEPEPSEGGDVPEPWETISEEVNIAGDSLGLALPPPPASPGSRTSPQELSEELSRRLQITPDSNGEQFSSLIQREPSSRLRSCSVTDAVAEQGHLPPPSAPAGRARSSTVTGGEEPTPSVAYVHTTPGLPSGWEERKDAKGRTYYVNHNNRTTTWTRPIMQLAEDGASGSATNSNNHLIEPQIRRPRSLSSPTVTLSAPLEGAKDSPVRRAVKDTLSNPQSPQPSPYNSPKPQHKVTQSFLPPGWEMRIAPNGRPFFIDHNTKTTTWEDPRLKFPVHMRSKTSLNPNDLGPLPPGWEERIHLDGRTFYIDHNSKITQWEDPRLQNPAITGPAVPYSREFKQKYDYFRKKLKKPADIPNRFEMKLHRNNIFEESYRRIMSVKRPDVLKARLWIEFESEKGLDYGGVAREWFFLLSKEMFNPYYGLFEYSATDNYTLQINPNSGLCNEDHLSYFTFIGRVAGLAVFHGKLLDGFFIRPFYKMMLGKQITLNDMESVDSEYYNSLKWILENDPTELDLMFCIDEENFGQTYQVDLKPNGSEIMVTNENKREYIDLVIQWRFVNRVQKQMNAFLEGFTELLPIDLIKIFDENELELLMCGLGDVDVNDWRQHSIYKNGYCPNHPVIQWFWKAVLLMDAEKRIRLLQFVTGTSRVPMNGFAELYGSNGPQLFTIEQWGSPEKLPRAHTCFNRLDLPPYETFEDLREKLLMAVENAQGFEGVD
Procedure: For in vitro ubiquitylation reactions, purified Adenovirus particles were treated with mild heat to release protein VI as previously described in Wodrich et al. (2010 - PLoS Pathog. 6, e1000808), and in vitro ubiquitylation reactions were supplemented with recombinant NEDD4.2 and DMSO or the compound of formula (IIIa) and carried out for 1h at 30°C or left on ice.
as §1

Sequence of WW3-NEDD 4.1 peptide (P46934 834-878): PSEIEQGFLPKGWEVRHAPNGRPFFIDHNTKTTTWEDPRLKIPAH
Sequence of WW3-NEDD 4.2 peptide (Q96PU5 with tags, fused parts or gaps): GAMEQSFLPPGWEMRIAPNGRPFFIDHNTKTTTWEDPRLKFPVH
T1 sequence (P46934 834-878): as the sequence (P46934 834-878) above

Row | SMILES | inhibition of adenoviral propagation (plaque size) (HAd-C5-GFP; 10 µM and 20 µM (highest non-cytotoxic concentrations), plaque size) | ubiquitylation of protein VI in cells (protein VI) | Kd (WW3-NEDD 4.1 peptide; MST, 100 nM FAM-labelled peptide, 1x PBS pH 7.4, 5 % DMSO, 0.1 % Pluronic F-127, 25°C, read-out: WW3-NEDD 4.1 peptide KD) | higher affinity to the WW3 peptide domain target compared to the Imidazole control (WW3-NEDD 4.1 peptide; ratio of MST KD values, WW3-NEDD4.1 and WW3-NEDD4.2) | interaction with the NEDD4 peptide (NMR chemical shift change) (WW3-domain of NEDD4) | Kd (WW3-NEDD 4.2 peptide) | ubiquitylation of cellular proteins (U2OS cells; 2µM) | ubiquitylation of cellular proteins (U2OS cells; 10µM) | NEDD4.2 localization (GFP-NEDD4.2) | NEDD4.1 localization (GFP-NEDD4.1) | anti-adenoviral activity (plaque size) (HAd-C5-GFP; 5 µM, 0.1 pp/cell HAd-C5-GFP, plaque size six days after infection, compared to DMSO) | recruitment of NEDD4.2 to incoming AdV particles (NEDD4.2-GFP) | protein VI ubiquitylation in vitro (recombinant NEDD4.2) | Kd (WW3-NEDD 4.1 peptide)
1 | Nc1ccn(C[C@@H](CO)OCP(=O)(O)O)c(=O)n1 [Cidofovir, reference compound] | did not show significant inhibition |  |  |  |  |  |  |  |  |  |  |  |  | 
2 | O=C(/C=C(\C(=O)c1ccc(Cl)cc1Cl)n1ccnc1)c1ccc(Cl)cc1Cl [Compound of formula (IIIa), (E)-1,4-Bis(2,4-dichlorophenyl)-2-(1H-imidazol-1-yl)but-2-ene-1,4-dione] |  | gradually impaired ubiquitylation of protein VI | 0.058 ± 0.022 µM | 100-1000 fold | interacts with the NEDD4 peptide | 0.12 ± 0.039 µM | protein ubiquitylation is reduced or increased for several cellular proteins | preferentially increases ubiquitylation of several cellular proteins | accumulated strongly at cell-cell-contact sites as well as in a distinct perinuclear region | became largely immobile and relocated to a perinuclear region | effective anti-adenoviral activity | prevented the recruitment of NEDD4.2 | prevented protein VI ubiquitylation in vitro | 
3 | c1c[nH]cn1 [Imidazole (control), Imidazole, reference compound] |  |  |  |  |  | 90.4 ± 38.6 µM |  |  |  |  |  |  |  | 88.9 ± 28.4 µM
